From patent publication US11440939B2, “Anticancer peptides” (IDP DISCOVERY PHARMA, S.L., priority 2017, dated 2022)
Numbered stars: 1 amine (or outer) side, 2 acyl side, 3 side chain; on linkers, the order of the positions; unused ones are H or OH. Bridge positions count the residues as written; N and C are the ends. Square brackets hold non-standard residues; d marks the D form. Peptide text beside a SMILES is read from it. ξ: configuration not given here. ξαMeNle(6-ylidene) = CC(CCCC=[*:3])(N[*:1])C(=O)[*:2]; X1 = CC(CCCCCCC=[*:3])(N[*:1])C(=O)[*:2]; R8 = C=CCCCCCC[C@@](C)(N)C(=O)O; S5 = C=CCCC[C@](C)(N)C(=O)O

Tests used:
Type in all cases: cell-based
[1] = tested on: NCI-H82; conditions: 72 h
Experimental: NCI-H82, epithelial (small cell lung cancer, SCLC), ATCC-CRL-5811;
(§1) Cell line MCF-7 was cultured in incubator under CO2 (6%) at 37° C. in DMEM high glucose (Dulbecco's Modified Eagle Solution, Gibco-BRL 31966-21) medium with 10% fetal bovine serum inactivated (FBS) (Gibco-BRL 10106-169). Cell lines HL-60, NCI-H524, NCI-H526, NCI-H69, NCI-H82, NCI-H187 and H5B were cultured in an incubator at 37° C. in RPMI-1640 (Sigma R8758) medium with 10% of fetal bovine serum inactivated (FBS) and 2 mM glutamine (Sigma G7513). Cell line NCI-H510A was cultured in incubator in F12K medium with 10% of fetal bovine serum inactivated (FBS). Cell line GBM-18 and GBM-27 were cultured in incubator under CO2 (6%) at 37° C. in complete medium (Neurobasal+B27+Glutamax+Growth factors).
(§2) During the amplification step and the assays, adherent cells were rinsed with DPBS (Dulbecco's Phosphate Buffered Saline, Sigma D1283) three times and afterward treated for 5 minutes with trypsin ([…]) (Gibco-BRL, 15400054) in solution of DPBS at 37° C., and, once detached, transferred in the culturing medium. No-adherent cells were centrifuged and transferred in the culturing medium. Cells were counted in a Neubauer chamber after labelling with Tripan-Blue.
(§3) MCF-7, NCI-H187, NCI-H69, NCI-H526 and H5B cells were seeded at a density of 5000 cells/well; NCI-H524 and NCI-H82 were seeded at a density of 2500 cells/well; HL-60 and NCI-H510A at 10000 cells/well in 100 μl of medium in 96 well plates. After 24 h, the compounds to be tested were added to calculate the dose/response curve at the starting concentration of 100 μM with serial dilutions (1:1). Controls were the untreated cells. Each experiment was performed in triplicate.
(§4) Cells were incubated during 72 h in incubator under CO2 atmosphere at 37° C. Cell viability was measured by means of MTT (3-(4,5-dimethylthiazol-2-yl)-2,5-diphenyltetrazolium bromide) assay, Alamar Blue® (Biosource DAL1100) and Hexosaminidase activity test, consecutively, following manufacturer instructions.
(§5) MTT: 1. Stock solution of MTT (475989 Calbiochem) was 5 mg/ml in PBS 1×. As negative control (experiment noise) 3 wells were treated with 20 μl/well of a solution of SDS 10% in H2O. The same control was used for Alamar Blue/Hexosaminidase. 10 μl/well of MTT solution were added and the plate was incubated for 3-4 hr. The medium was discarded and 100 μl of extracting buffer (PBS 1×, 15% SDS, 50% […] N,N-Dimethylformamide, pH 4,7) were added to each well. Plates were incubated for 16 h at room temperature under orbital shaking. Absorbance at 570 nm was finally measured.
(§6) Alamar Blue: 10 μl Alamar Blue solution was added to each well and the plates were incubated for […] in the incubator. Fluorescence ratio at 535/590 (excitation/emission) was measured in Cytofluor (Millipore) fluorimeter. Blank control was determined by lysis of untreated cells with con 2% of Triton X100, right before adding Alamar Blue solution.
(§7) Hexosaminidase activity test: after Alamar Blue lecture, medium was discarded and plates were rinsed once with PBS. 60 μl hexosaminidase substrate (p-nitrophenol-N-acetyl-beta-D-glucosamide 7.5 mM [Sigma N-9376], sodium citrate 0.1 M, pH 5.0, 0.25% Triton X-100) was added to each well and the plates were incubated at 37° C. for 2-5 h, according to the cell type (hexosaminidase activity changes according to the cell type). […] Blank control was the same as described before.
(§8) Data analysis was performed calculating the percentage of cell viability normalized vs. the values of negative control, which was considered equal to 100%. The dose/response curve was fitted through the sigmoidal equation dose-response (variable slope) and the EC50 values were calculated as follow: Y=Bottom+(Top−Bottom)/(1+10^{[(Log EC50−X)*HillSlope]},

[2] = tested on: NCI-H187; conditions: 72 h
Experimental: NCI-H187, epithelial (small cell lung cancer, SCLC), ATCC-CRL-5804;
as §1, §2, §3, §4, §5, §6, §7, §8

[3] = tested on: NCI-H510A; conditions: 72 h
Experimental: NCI-510A, epithelial (small cell lung cancer, SCLC), ATCC-HBT-124; and Hepatocytes (normal liver), from a donor was provided by Foundation DTI-Donation & Transplantation Institute from surgical wastes and from organs not suitable for transplantation
as §1, §2, §3, §4, §5, §6, §7, §8

[4] = tested on: cancer cell lines; assay: Inhibition of cancer cell proliferation, general statements
Experimental: as §3, §4, §8

How did the EC50 [1] turn out when `CC(C)C[C@H](NC(=O)[C@H](CCCCN)NC(=O)[C@@H](NC(=O)[C@@H](N)CCCNC(=N)N)C(C)C)C(=O)N[C@H](C(=O)N[C@@H](CC(N)=O)C(=O)N[C@@H](CC(C)C)C(=O)NC1(C)CCCCCCC=CCCCC(C)(C(=O)N[C@H](C(=O)N[C@@H](CCC(N)=O)C(N)=O)C(C)C)NC(=O)[C@H](CCC(=O)O)NC(=O)[C@H](CCCNC(=N)N)NC(=O)[C@H](CC(C)C)NC(=O)[C@H]([C@@H](C)O)NC(=O)[C@H](C)NC(=O)[C@H](Cc2ccccc2)NC1=O)C(C)C` (stereo partly drawn) [IDP-H14-Q15] (H-RVKLVNL[X1]FATLRE[ξαMeNle(6-ylidene)]VQ-NH2; staple 8-15; N-terminus and C-terminus assumed) was run?
The EC50 was about 7.5 µM.

And the EC50 [2]?
Its EC50 is about 7.5 µM.

And the EC50 [3]?
Its EC50 is about 7.5 µM.

What about the “inhibition of cancer cell proliferation (in words)” value (from here on “inhibition”) [4] of the same compound?
Its value is “active”.

With `CC(C)C[C@H](NC(=O)[C@H](CCCCN)NC(=O)[C@@H](NC(=O)[C@@H](N)CCCNC(=N)N)C(C)C)C(=O)N[C@H](C(=O)N[C@@H](CC(N)=O)C(=O)N[C@@H](CC(C)C)C(=O)N[C@]1(C)CCCCCCC=CCCC[C@@](C)(C(=O)N[C@H](C(=O)N2CCC[C@H]2C(N)=O)C(C)C)NC(=O)[C@H](CCC(=O)O)NC(=O)[C@H](CCCNC(=N)N)NC(=O)[C@H](CC(C)C)NC(=O)[C@H]([C@@H](C)O)NC(=O)[C@H](CCC(N)=O)NC(=O)[C@H](Cc2ccccc2)NC1=O)C(C)C` [IDP-H14-Q9] (H-RVKLVNL[R8]FQTLRE[S5]VP-NH2; staple 8-15; N-terminus assumed) as the compound, how does the EC50 [2] read?
Its EC50 is about 12.5 µM.

And the “inhibition” value [4]?
Its value is “active”.

`CC(C)C[C@@H]1NC(=O)[C@H](C)NC(=O)[C@H](CCC(N)=O)NC(=O)[C@H](Cc2ccccc2)NC(=O)C(C)(NC(=O)[C@H](CC(C)C)NC(=O)[C@H](CC(N)=O)NC(=O)[C@@H](NC(=O)[C@H](CC(C)C)NC(=O)[C@H](CCCCN)NC(=O)[C@@H](NC(=O)[C@@H](N)CCCNC(=N)N)C(C)C)C(C)C)CCCCCCC=CCCCC(C)(C(=O)N[C@H](C(=O)N2CCC[C@H]2C(N)=O)C(C)C)NC(=O)[C@H](CCC(N)=O)NC(=O)[C@H](CCCNC(=N)N)NC1=O` (stereo partly drawn) [IDP-H14-H2-01] (H-RVKLVNL[X1]FQALRQ[ξαMeNle(6-ylidene)]VP-NH2; staple 8-15; N-terminus and C-terminus assumed) was tested. Which EC50 [1] did it give?
Its EC50 is about 7.5 µM.

What about the EC50 [2] of the same compound?
Its EC50 is about 7.5 µM.

What about the EC50 [3] of the same compound?
Its EC50 is about 7.5 µM.

What about the “inhibition” value [4] of the same compound?
The value was “active”.

With `CC(C)C[C@H](NC(=O)[C@H](CCCCN)NC(=O)[C@@H](NC(=O)[C@@H](N)CCCNC(=N)N)C(C)C)C(=O)N[C@H](C(=O)N[C@@H](CC(N)=O)C(=O)N[C@@H](CC(C)C)C(=O)NC1(C)CCCCCCC=CCCCC(C)(C(=O)N[C@H](C(=O)N2CCC[C@H]2C(N)=O)C(C)C)NC(=O)[C@H](CCC(N)=O)NC(=O)[C@H](CCCNC(=N)N)NC(=O)[C@H](CC(C)C)NC(=O)[C@H]([C@@H](C)O)NC(=O)[C@H](C)NC(=O)[C@H](Cc2ccccc2)NC1=O)C(C)C` (stereo partly drawn) [IDP-H14-Q13] (H-RVKLVNL[X1]FATLRQ[ξαMeNle(6-ylidene)]VP-NH2; staple 8-15; N-terminus and C-terminus assumed) as the compound, how does the EC50 [1] read?
The EC50 was about 7.5 µM.

And the EC50 [2]?
The EC50 was about 7.5 µM.

What about the EC50 [3] of the same compound?
Its EC50 is about 12.5 µM.

And the “inhibition” value [4]?
Its value is “active”.

With `CC(C)C[C@H](NC(=O)[C@H](CCCCN)NC(=O)[C@@H](NC(=O)[C@@H](N)CCCNC(=N)N)C(C)C)C(=O)N[C@H](C(=O)N[C@@H](CC(N)=O)C(=O)N[C@@H](CC(C)C)C(=O)NC1(C)CCCCCCC=CCCCC(C)(C(=O)N[C@H](C(=O)N[C@@H](Cc2ccccc2)C(N)=O)C(C)C)NC(=O)[C@H](CCC(=O)O)NC(=O)[C@H](CCCNC(=N)N)NC(=O)[C@H](CC(C)C)NC(=O)[C@H]([C@@H](C)O)NC(=O)[C@H](C)NC(=O)[C@H](Cc2ccccc2)NC1=O)C(C)C` (stereo partly drawn) [IDP-H14-F14] (H-RVKLVNL[X1]FATLRE[ξαMeNle(6-ylidene)]VF-NH2; staple 8-15; N-terminus and C-terminus assumed) as the compound, how does the EC50 [1] read?
Its EC50 is about 7.5 µM.

What about the EC50 [2] of the same compound?
Its EC50 is about 7.5 µM.

And the EC50 [3]?
The EC50 was about 7.5 µM.

What about the “inhibition” value [4] of the same compound?
Its value is “active”.

With `CC(C)C[C@H](NC(=O)[C@H](CCCCN)NC(=O)[C@@H](NC(=O)[C@@H](N)CCCNC(=N)N)C(C)C)C(=O)N[C@H](C(=O)N[C@@H](CC(N)=O)C(=O)N[C@@H](CC(C)C)C(=O)NC1(C)CCCCCCC=CCCCC(C)(C(=O)N[C@H](C(=O)N[C@@H](CO)C(N)=O)C(C)C)NC(=O)[C@H](CCC(=O)O)NC(=O)[C@H](CCCNC(=N)N)NC(=O)[C@H](CC(C)C)NC(=O)[C@H]([C@@H](C)O)NC(=O)[C@H](C)NC(=O)[C@H](Cc2ccccc2)NC1=O)C(C)C` (stereo partly drawn) [IDP-H14-S15] (H-RVKLVNL[X1]FATLRE[ξαMeNle(6-ylidene)]VS-NH2; staple 8-15; N-terminus and C-terminus assumed) as the compound, how does the EC50 [1] read?
The EC50 was about 7.5 µM.

What about the EC50 [2] of the same compound?
The EC50 was about 7.5 µM.

What about the EC50 [3] of the same compound?
The EC50 was about 7.5 µM.

What about the “inhibition” value [4] of the same compound?
The value was “active”.

How did the EC50 [1] turn out when `CC(C)C[C@H](NC(=O)[C@H](CCCCN)NC(=O)[C@@H](NC(=O)[C@H](CCCNC(=N)N)NC(=O)[C@H](CCCNC(=N)N)NC(=O)[C@H](CCCNC(=N)N)NC(=O)[C@H](CCCNC(=N)N)NC(=O)[C@H](CCCNC(=N)N)NC(=O)[C@H](CCCNC(=N)N)NC(=O)[C@H](CCCNC(=N)N)NC(=O)[C@@H](N)CCCNC(=N)N)C(C)C)C(=O)N[C@H](C(=O)N[C@@H](CC(N)=O)C(=O)N[C@@H](CC(C)C)C(=O)NC1(C)CCCCCCC=CCCCC(C)(C(=O)N[C@H](C(=O)N2CCC[C@H]2C(N)=O)C(C)C)NC(=O)[C@H](CCC(=O)O)NC(=O)[C@H](CCCNC(=N)N)NC(=O)[C@H](CC(C)C)NC(=O)[C@H]([C@@H](C)O)NC(=O)[C@H](C)NC(=O)[C@H](Cc2ccccc2)NC1=O)C(C)C` (stereo partly drawn) [IDP-H14-CPP] (H-RRRRRRRRVKLVNL[X1]FATLRE[ξαMeNle(6-ylidene)]VP-NH2; staple 15-22; N-terminus and C-terminus assumed) was run?
The EC50 was about 7.5 µM.

What about the EC50 [2] of the same compound?
The EC50 was about 7.5 µM.

What about the EC50 [3] of the same compound?
The EC50 was about 7.5 µM.

Which EC50 [1] does the source give for `CC(C)C[C@H](NC(=O)[C@H](CC(N)=O)NC(=O)[C@@H](NC(=O)[C@H](CC(C)C)NC(=O)[C@H](CCCCN)NC(=O)[C@@H](NC(=O)[C@H](CCCNC(=N)N)NC(=O)[C@H](CCCNC(=N)N)NC(=O)[C@H](CCCNC(=N)N)NC(=O)[C@H](CCCNC(=N)N)NC(=O)[C@H](CCCNC(=N)N)NC(=O)[C@H](CCCNC(=N)N)NC(=O)[C@H](CCCNC(=N)N)NC(=O)[C@@H](N)CCCNC(=N)N)C(C)C)C(C)C)C(=O)NCC(=O)N[C@@H](Cc1ccccc1)C(=O)N[C@@H](C)C(=O)N[C@H](C(=O)N[C@@H](CC(C)C)C(=O)N[C@@H](CCCNC(=N)N)C(=O)N[C@@H](CCC(=O)O)C(=O)N[C@@H](Cc1c[nH]cn1)C(=O)N[C@H](C(=O)N1CCC[C@H]1C(N)=O)C(C)C)[C@@H](C)O` [LH02] (H-RRRRRRRRVKLVNLGFATLREHVP-NH2; N-terminus and C-terminus assumed) here?
The EC50 was about 7 µM.

What about the EC50 [2] of the same compound?
Its EC50 is about 10 µM.
